# Results published in PubChem BioAssay AID720713 (Broad Institute, 2013).
# Active and inactive are the calls of the source. No rule for the calls is given here.
# Test system: A549 cytotoxicity, plate reader
# Test: viability loss in A549 lung cancer cells – cell-based, plate reader, dry powder, set 2, dose response (AID 720713)
# Settings: not given
row,SMILES,AC50
1,COc1ccc(NC(=O)c2nc(S(=O)(=O)Cc3cccc(C)c3)ncc2Cl)c(OC)c1,> 52 µM (inactive)
2,CN(C)c1nc(-c2ccccn2)nnc1-c1ccccc1,25.6 µM

# Test system: not listed separately
# Test: as above
# Settings: A549 cytotoxicity, plate reader; at 12 µM (top of the series)
row,SMILES,"activity change, negative = cytotoxicity"
1,CN(C(=O)COc1ccccc1C(=O)NCCOc1ccccc1)c1ccccc1,2.59% (inactive)

# Same assay, conditions: A549 cytotoxicity, plate reader; at 26 µM (top of the series)
row,SMILES,"activity change, negative = cytotoxicity"
1,Fc1ccc(-n2nnnc2-c2cnc(-c3cccs3)nc2C(F)(F)F)cc1,2.19% (inactive)
2,COc1ccc(NS(=O)(=O)c2ccc(C(=O)N3CCCCCC3)cc2)cc1,22% (inactive)
3,Cc1ccc2cc(CN(CC3CCCO3)C(=O)NC3CCCCC3)c(=O)[nH]c2c1C (configuration not stated),106% (inactive)
4,CCOC(=O)C1(Cc2ccc(Cl)cc2)CCN(C(C)Cc2ccc(O)c(OC)c2)CC1 (configuration not stated),1.75% (inactive)
5,CC(=O)Nc1cccc(NC(=O)CSc2ncc(-c3ccc(Cl)cc3)n2Cc2ccco2)c1,11.6% (inactive)
6,COc1cc(CN2CCc3ccccc3C2)ccc1O,-37.2% (inactive)
7,CCOC(=O)c1ccc(NC(=O)Cn2ncc(Cl)c(Cl)c2=O)cc1,-6.56% (inactive)
8,COc1ccc2c(c1)c(CC(=O)Nc1cc(C)ccc1C)c(C)n2C(=O)c1ccc(Cl)cc1,-1.36% (inactive)
9,CC(=O)N1CCN(C(=O)CCc2cc(C(C)(C)C)c(O)c(C(C)(C)C)c2)CC1,-4.62% (inactive)
10,CC(C)(C)NC(=O)CSc1nc2ccc(NC(=O)CSc3nnnn3Cc3ccccc3)cc2s1,16.7% (inactive)
11,COc1ccccc1N1CCN(c2ncc(C(=O)N3CCN(c4cccc(Cl)c4)CC3)c3ccccc23)CC1,4.47% (inactive)
12,CN(CC(=O)Nc1cccc(S(=O)(=O)N2CCOCC2)c1)CC(=O)Nc1ccc(Cl)c(C(F)(F)F)c1,8.78% (inactive)
13,CN(C)S(=O)(=O)c1cccc(NC(=O)c2cccc(S(=O)(=O)N3CCc4ccccc43)c2)c1,-0.758% (inactive)
14,CCCc1nnc(NC(=O)c2nc(S(=O)(=O)Cc3ccc(C)cc3)ncc2Cl)s1,8.63% (inactive)
15,COc1ccc(Nc2nc(N3CCCCC3)c3ccccc3n2)cc1,5.38% (inactive)
16,CC(C)[C@H](NC(=O)OC(C)(C)C)c1nnc(S(=O)(=O)Cc2c(F)cccc2Cl)o1,22.5% (inactive)
17,COc1cc2ncnc(N[C@H](C)c3ccccc3)c2cc1OC,10.2% (inactive)
18,Nc1nonc1C(=O)NCCNCc1cc(Br)ccc1OCc1ccc(F)cc1,4.85% (inactive)
19,O=c1c2ccccc2nc2n1C(CSCc1ccc(Cl)cc1Cl)CS2 (configuration not stated),6.09% (inactive)
20,O=C1CSc2ccc(C(=O)Nc3cccc(S(=O)(=O)Nc4ccc(Br)cc4)c3)cc2N1,12% (inactive)
21,Cc1cc(N2CCCC2=O)cc(C)c1S(=O)(=O)NCCOc1ccc(C(C)(C)C)cc1,11% (inactive)
22,O=C(c1nnsc1S(=O)c1ccc(Cl)cc1)N1CCOCC1 (configuration not stated),-41.1% (inactive)
23,CCOC(=O)C1CCN(C(=O)c2ccc(OCC(=O)Nc3cccc(C(F)(F)F)c3)c(OC)c2)CC1,-17.5% (inactive)
24,Cc1cc2c(cc(C(=O)N3CCC(C(=O)NC4CCCC4)CC3)n2Cc2c(F)cccc2Cl)o1,-19.5% (inactive)
